2 compounds from publication PMC9240326, “BacPROTACs mediate targeted protein degradation in bacteria” (Cell, 2022) can be followed below.

Data set [1] has as its target B. subtilis ClpCP protease (Bacillus subtilis, UniProt P37571). The format is biochemical.
The target of the next data set is BRDTBD1 (Homo sapiens, UniProt Q58F21). The data set can be described thus: Wes analysis of BRDTBD1 levels in M. smegmatis. The format is cell-based. To be noted: 30 min of incubation, relative to DMSO.
For a further data set, the target named is ClpC1NTD (Mycolicibacterium smegmatis, UniProt A0R574). The data set can be described thus: biochemical. The format is binding, Mycobacterium smegmatis.
The nature of data set [2]: Solubility in aqueous solutions (remark in ITC method). The format is physicochemical.

Each structure is given as a SMILES string. Where a SMILES comes first, the peptide text is derived from it. [ ]: non-standard residue; d: D form. Phe(βR-OMe) = CO[C@H](c1ccccc1)[C@H](N)C(=O)O; NMeL = CN[C@@H](CC(C)C)C(=O)O; NMeK = CN[C@@H](CCCCN)C(=O)O

Chain of ClpC1NTD (A0R574 1-148 limits assumed): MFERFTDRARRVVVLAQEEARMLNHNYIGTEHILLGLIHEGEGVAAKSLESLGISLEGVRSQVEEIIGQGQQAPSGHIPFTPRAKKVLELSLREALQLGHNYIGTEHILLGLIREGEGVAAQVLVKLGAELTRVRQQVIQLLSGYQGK
Chain of B. subtilis ClpCP protease (P80244 whole entry): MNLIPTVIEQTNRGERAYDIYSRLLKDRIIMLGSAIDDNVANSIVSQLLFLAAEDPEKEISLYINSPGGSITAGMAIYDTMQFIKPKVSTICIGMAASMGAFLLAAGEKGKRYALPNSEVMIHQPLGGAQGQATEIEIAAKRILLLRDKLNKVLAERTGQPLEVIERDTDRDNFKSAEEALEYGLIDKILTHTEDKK
Chain of B. subtilis ClpCP protease (P37571 whole entry): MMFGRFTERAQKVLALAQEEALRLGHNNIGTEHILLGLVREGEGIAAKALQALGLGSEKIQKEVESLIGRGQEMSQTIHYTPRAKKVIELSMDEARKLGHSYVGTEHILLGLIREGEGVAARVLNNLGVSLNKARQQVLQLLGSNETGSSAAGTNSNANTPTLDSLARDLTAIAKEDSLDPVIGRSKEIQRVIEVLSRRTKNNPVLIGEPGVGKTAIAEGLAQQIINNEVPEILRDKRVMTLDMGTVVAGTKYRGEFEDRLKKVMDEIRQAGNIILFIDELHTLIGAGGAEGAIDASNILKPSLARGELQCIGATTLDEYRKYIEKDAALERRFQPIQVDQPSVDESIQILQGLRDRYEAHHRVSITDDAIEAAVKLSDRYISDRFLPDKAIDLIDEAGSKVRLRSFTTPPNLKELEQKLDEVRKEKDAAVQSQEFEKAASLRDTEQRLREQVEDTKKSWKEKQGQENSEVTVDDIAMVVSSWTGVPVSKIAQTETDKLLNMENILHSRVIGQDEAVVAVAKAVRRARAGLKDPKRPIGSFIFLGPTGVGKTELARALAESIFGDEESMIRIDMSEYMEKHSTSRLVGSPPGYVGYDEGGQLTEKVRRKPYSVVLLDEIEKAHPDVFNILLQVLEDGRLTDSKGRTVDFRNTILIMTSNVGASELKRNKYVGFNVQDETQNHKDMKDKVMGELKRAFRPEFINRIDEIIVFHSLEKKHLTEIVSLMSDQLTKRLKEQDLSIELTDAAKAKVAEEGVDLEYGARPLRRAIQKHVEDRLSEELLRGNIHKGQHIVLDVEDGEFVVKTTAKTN

Take `CC(=O)NC(CCCNC(=N)N)C(=O)NCCOCCOCCC(=O)NCCOCCOCCC(=O)NCCOCCOCCC(=O)NC(CCCCNC(=O)CCCCC1SCC2NC(=O)NC21)C(N)=O` (stereo not shown) [BacPROTAC-1c]: the “mSA-Kre degradation by ClpCP, BacPROTAC-1 analogs” value in data set [1] is “did not induce substrate degradation”.
Usually Kd stands for the constant that tells how readily two partners part at equilibrium. A high value points to weaker binding. For the compound `CC[C@H](C)[C@@H]1NC(=O)[C@H](CC(C)C)N(C)C(=O)[C@H](C(C)C)NC(=O)[C@H]([C@H](OC)c2ccccc2)NC(=O)[C@H](C)NC(=O)[C@H](CCCCN)N(C)C(=O)[C@H](Cc2c[nH]c3ccccc23)NC1=O` [sCym-1] (cyclo(W[NMeK]A[Phe(βR-OMe)]V[NMeL]I)), the “BRDTBD1 levels in M. smegmatis (Wes)” value at BRDTBD1 was “did not significantly alter BRDTBD1 levels”. The compound further came in with a Kd at ClpC1NTD of 0.81 µM. Moreover, the “Solubility in aqueous solutions” value in data set [2] is given as “low solubility”.
